Converted amounts (≈) assume the structure as drawn. A value given as a limit tells only on which side of the number the result lay.

The conditions of the data set: buffer; pH 7.4; 200.0 µM.
`OCC(CO)(CO)NC(=S)Nc1cc(Cl)cc(Cl)c1`: the solubility (kinetic) (commonly the concentration staying in solution when a stock, usually in DMSO, is diluted into the medium) was 46.7 µg/mL (≈ 144 µM).

Molecule `CC(C)(C)C(=O)Nc1ccc(-c2cc3cc(Cl)ccc3o2)cc1` displayed a solubility (kinetic) of 0.8 µg/mL (≈ 2.44 µM).

On to `COc1ccc(CCN(C)Cc2cccc3ccccc23)cc1OC`, for which the solubility (kinetic) is 37.1 µg/mL (≈ 111 µM).

As to `COc1ccc(NC(=O)c2ccc3c(c2)OCO3)cc1S(=O)(=O)N1CCOCC1`, the kinetic solubility stood at 14.7 µg/mL (≈ 35 µM).

For the molecule `O=C(Cn1cnc([N+](=O)[O-])c1)NCCc1ccccc1`, the kinetic solubility is above 41.1 µg/mL.

Take `O=C(NC1CCCC1)c1cc2cc(Br)ccc2o1`: the kinetic solubility worked out at 6.1 µg/mL (≈ 19.8 µM).

As for `CCN(C(=O)CSc1nc2ccccc2c(=O)n1-c1cccc(C)c1)C1CCS(=O)(=O)C1` (stereo unspecified), the solubility (kinetic) came out at 2.8 µg/mL (≈ 5.94 µM).

In turn, `CCCCCOc1ccc(C(=O)OC(C)C(=O)NCc2ccco2)cc1` (stereo unspecified) yielded a kinetic solubility of 2.9 µg/mL (≈ 8.07 µM).

In turn, `CN(C)CCSC1c2ccccc2CSc2ccccc21.Cl` (stereo unspecified) yielded a solubility (kinetic) of 51.6 µg/mL.

In the case of `O=C(Nc1ccc(Cl)cc1F)c1cccc2ccccc12`, the solubility (kinetic) is 1 µg/mL (≈ 3.34 µM).

For the molecule `O=S(=O)(Cc1cc(-c2ccccc2)no1)c1ccccc1`, the kinetic solubility turned out to be 3.4 µg/mL (≈ 11.4 µM).

In turn, `Brc1ccccc1OCCN1CCCC1` had a solubility (kinetic) of 32 µg/mL (≈ 118 µM).

Take `O=C(NCc1cccnc1)Nc1ccccc1Cl`: the kinetic solubility is above 39.3 µg/mL.

`C=CCn1cccc(C(=O)Nc2ccc(OC)c(Cl)c2)c1=O` came in with a solubility (kinetic) of 1.5 µg/mL (≈ 4.71 µM).

`Cc1cnc(NC(=O)CN2CCCCC2)s1.[O-][Cl+3]([O-])([O-])O`: the kinetic solubility turned out to be 24.7 µg/mL.

As to `CC(C)S(=O)(=O)c1csc(NC(=O)Nc2ccc(Cl)cc2)c1`, the kinetic solubility was 2.8 µg/mL (≈ 7.8 µM). This solubility kinetic is about 8.8-fold lower than that of the molecule before.

For `O=C(Nc1ccon1)Nc1ccc(F)cc1F`, the kinetic solubility was above 35.9 µg/mL.

With `O=C(O)c1cc(=O)n(Cc2ccccc2)c(=O)[nH]1`, the solubility (kinetic) was above 36.9 µg/mL.

`CCOC(=O)C1CCN(C(=O)c2ccc3c(c2)OCCO3)CC1` had a kinetic solubility of 44.4 µg/mL (≈ 139 µM).

Consider `CCCNC(=O)CN1C(=O)NC(CCc2ccccc2)C1=O` (stereo unspecified), for which the solubility (kinetic) is above 45.5 µg/mL.

The molecule `Cc1nc(SCC(=O)NC2CCCCC2C)nc(C)c1C` (stereo unspecified) showed a solubility (kinetic) above 46.1 µg/mL.

On to `CCOC(=O)CCNC(=O)N1CCCC(C(=O)c2ccccc2SC)C1` (stereo unspecified), for which the solubility (kinetic) was above 56.8 µg/mL.

In turn, `CC(O)CNC12CC3CC(CC(C3)C1)C2` (stereo unspecified) yielded a kinetic solubility of 29.6 µg/mL (≈ 141 µM).

The molecule `Cc1cccc(C(=O)OCCN2CCOCC2)c1.Cl` yielded a kinetic solubility above 42.9 µg/mL.

For `CCCCOc1cc(C(=O)NCCN(CC)CC)c2ccccc2n1.Cl`, the solubility (kinetic) is above 57 µg/mL.

`CC(=O)NC1CCN(CC(=O)Nc2cccc([N+](=O)[O-])c2)CC1` returned a solubility (kinetic) of 43.7 µg/mL (≈ 136 µM).

Molecule `O=C(OCC(=O)N1CCCC1)c1cnc(Cl)c(Cl)c1` displayed a kinetic solubility above 45.5 µg/mL.

Consider `Cc1cccc(NC(=O)c2ccc3c(c2)CCN3S(C)(=O)=O)c1`, for which the solubility (kinetic) turned out to be 37.5 µg/mL (≈ 113 µM).

`Cc1cc(C(=O)OCC(=O)N2CCOCC2)ccc1[N+](=O)[O-]` gave a kinetic solubility above 46.2 µg/mL.

`COc1ccc(Cc2c(O)nc(SCC(C)C)[nH]c2=O)cc1` registered a solubility (kinetic) of 47.2 µg/mL (≈ 147 µM).

Regarding `O=C(Nc1ccc(C(=O)O)cc1)/C(=C\c1ccco1)NC(=O)c1ccco1`, the solubility (kinetic) was above 54.9 µg/mL.

`CCOC(=O)CCSc1cc(C)c2ccccc2n1` gave a solubility (kinetic) of 4.3 µg/mL (≈ 15.6 µM).

As to `COC(=O)c1sc(SC)c(S(=O)(=O)C(C)C)c1N`, the solubility (kinetic) came to 3.8 µg/mL (≈ 12.3 µM).

As to `COc1cc2ccccc2cc1C(=O)NC(=S)Nc1cccc(C(=O)O)c1C`, the solubility (kinetic) turned out to be 18.3 µg/mL (≈ 46.4 µM). This solubility kinetic is about 4.8-fold higher than that of the molecule before.

In the case of `Cc1sc2nc[nH]c(=O)c2c1-c1ccc(F)cc1`, the solubility (kinetic) turned out to be 4.8 µg/mL (≈ 18.4 µM).

Turning to `CC(=O)Nc1nc2c(C)c(Cl)ccc2s1`, the solubility (kinetic) was below 0.3 µg/mL.

On to `COc1ccc(NC(=S)N2CCCC2)c(OC)c1`, for which the kinetic solubility was above 40 µg/mL.

The molecule `CC1CC(C)CN(CCOc2cccc3ccccc23)C1` (stereo unspecified) gave a kinetic solubility of 34.1 µg/mL (≈ 120 µM).

`CCOc1cc(C(=O)N=c2sccn2C)ccc1OC(F)F` yielded a solubility (kinetic) of 45.4 µg/mL (≈ 138 µM).

For `N#C/C=C/N1CCN(C(=O)c2ccco2)CC1`, the kinetic solubility is above 34.7 µg/mL.

With `COc1ccc(NC(=O)/C=C/c2ccc(OC(F)F)cc2)cn1`, the kinetic solubility was determined as 2 µg/mL (≈ 6.24 µM).

(Values after PubChem BioAssay AID1996.)
